Laboratory results reported in the NIST ThermoML archive (doi:10.1021/je050034s).
Numbers after ± are expanded uncertainties.

What was measured:
[1] = molar heat capacity at saturation pressure
[2] = Molar enthalpy of transition or fusion; conditions: Crystal

c1ccc(Cc2ccccc2)cc1 [diphenylmethane]
molar heat capacity [J/K/mol], [1]
Conditions	Crystal	Liquid
5 K, Vacuum adiabatic calorimetry	0.38 ± 0.02	–
5.364 K, Vacuum adiabatic calorimetry	0.47 ± 0.02	–
6.296 K, Vacuum adiabatic calorimetry	0.76 ± 0.02	–
7.218 K, Vacuum adiabatic calorimetry	1.16 ± 0.02	–
8.187 K, Vacuum adiabatic calorimetry	1.71 ± 0.02	–
9.195 K, Vacuum adiabatic calorimetry	2.42 ± 0.03	–
10 K, Vacuum adiabatic calorimetry	3.12 ± 0.04	–
10.21 K, Vacuum adiabatic calorimetry	3.31 ± 0.04	–
11.33 K, Vacuum adiabatic calorimetry	4.39 ± 0.05	–
12.6 K, Vacuum adiabatic calorimetry	5.74 ± 0.06	–
13.99 K, Vacuum adiabatic calorimetry	7.45 ± 0.07	–
15.53 K, Vacuum adiabatic calorimetry	9.437 ± 0.07	–
17.24 K, Vacuum adiabatic calorimetry	11.84 ± 0.091	–
19.13 K, Vacuum adiabatic calorimetry	14.59 ± 0.1	–
20 K, Vacuum adiabatic calorimetry	15.87 ± 0.1	–
21.21 K, Vacuum adiabatic calorimetry	17.66 ± 0.11	–
23.51 K, Vacuum adiabatic calorimetry	21.15 ± 0.12	–
26.07 K, Vacuum adiabatic calorimetry	24.97 ± 0.12	–
28.93 K, Vacuum adiabatic calorimetry	29.09 ± 0.12	–
30 K, Vacuum adiabatic calorimetry	30.59 ± 0.11	–
32.11 K, Vacuum adiabatic calorimetry	33.47 ± 0.11	–
35.66 K, Vacuum adiabatic calorimetry	37.99 ± 0.12	–
39.62 K, Vacuum adiabatic calorimetry	42.58 ± 0.12	–
40 K, Vacuum adiabatic calorimetry	43 ± 0.12	–
44.02 K, Vacuum adiabatic calorimetry	47.26 ± 0.13	–
48.94 K, Vacuum adiabatic calorimetry	51.94 ± 0.14	–
50 K, Vacuum adiabatic calorimetry	52.92 ± 0.15	–
50.87 K, Vacuum adiabatic calorimetry	53.74 ± 0.15	–
52.95 K, Vacuum adiabatic calorimetry	55.44 ± 0.15	–
54.43 K, Vacuum adiabatic calorimetry	56.74 ± 0.16	–
55.01 K, Vacuum adiabatic calorimetry	57.11 ± 0.16	–
57.89 K, Vacuum adiabatic calorimetry	59.58 ± 0.16	–
59.91 K, Vacuum adiabatic calorimetry	61.04 ± 0.17	–
60 K, Vacuum adiabatic calorimetry	61.11 ± 0.17	–
63.59 K, Vacuum adiabatic calorimetry	63.66 ± 0.17	–
65.43 K, Vacuum adiabatic calorimetry	65.06 ± 0.17	–
69.82 K, Vacuum adiabatic calorimetry	68.05 ± 0.17	–
70 K, Vacuum adiabatic calorimetry	68.16 ± 0.17	–
76.62 K, Vacuum adiabatic calorimetry	72.36 ± 0.18	–
78.19 K, Vacuum adiabatic calorimetry	73.39 ± 0.19	–
80 K, Vacuum adiabatic calorimetry	74.47 ± 0.19	–
81.13 K, Vacuum adiabatic calorimetry	75.18 ± 0.19	–
84.19 K, Vacuum adiabatic calorimetry	76.96 ± 0.19	–
85.52 K, Vacuum adiabatic calorimetry	77.76 ± 0.2	–
88.47 K, Vacuum adiabatic calorimetry	79.51 ± 0.2	–
90 K, Vacuum adiabatic calorimetry	80.38 ± 0.28	–
96.79 K, Vacuum adiabatic calorimetry	84.28 ± 0.28	–
100 K, Vacuum adiabatic calorimetry	86.12 ± 0.28	–
105.91 K, Vacuum adiabatic calorimetry	89.5 ± 0.29	–
115.55 K, Vacuum adiabatic calorimetry	94.96 ± 0.3	–
120 K, Vacuum adiabatic calorimetry	97.5 ± 0.3	–
125.31 K, Vacuum adiabatic calorimetry	100.54 ± 0.3	–
135.12 K, Vacuum adiabatic calorimetry	106.25 ± 0.31	–
140 K, Vacuum adiabatic calorimetry	109.13 ± 0.31	–
145.06 K, Vacuum adiabatic calorimetry	112.15 ± 0.32	–
155.05 K, Vacuum adiabatic calorimetry	118.34 ± 0.32	–
160 K, Vacuum adiabatic calorimetry	121.47 ± 0.32	–
165.03 K, Vacuum adiabatic calorimetry	124.68 ± 0.32	–
175.01 K, Vacuum adiabatic calorimetry	131.04 ± 0.33	–
180 K, Vacuum adiabatic calorimetry	134.55 ± 0.33	–
185 K, Vacuum adiabatic calorimetry	138.14 ± 0.34	–
195.05 K, Vacuum adiabatic calorimetry	145.11 ± 0.35	–
200 K, Vacuum adiabatic calorimetry	148.68 ± 0.35	–
205.14 K, Vacuum adiabatic calorimetry	152.48 ± 0.35	–
215.25 K, Vacuum adiabatic calorimetry	160.17 ± 0.36	–
220 K, Vacuum adiabatic calorimetry	163.86 ± 0.37	–
225.34 K, Vacuum adiabatic calorimetry	168.15 ± 0.37	–
235.38 K, Vacuum adiabatic calorimetry	176.42 ± 0.37	–
240 K, Vacuum adiabatic calorimetry	180.3 ± 0.38	–
245.37 K, Vacuum adiabatic calorimetry	185.01 ± 0.38	–
246.51 K, Vacuum adiabatic calorimetry	185.99 ± 0.38	–
255.32 K, Vacuum adiabatic calorimetry	193.89 ± 0.39	–
257.33 K, Vacuum adiabatic calorimetry	195.76 ± 0.4	–
260 K, Vacuum adiabatic calorimetry	198.12 ± 0.4	–
268.6 K, Vacuum adiabatic calorimetry	206.43 ± 0.41	–
279.29 K, Vacuum adiabatic calorimetry	217.16 ± 0.42	–
280 K, Vacuum adiabatic calorimetry	217.44 ± 0.42	–
289.28 K, Vacuum adiabatic calorimetry	229.55 ± 0.43	–
289.37 K, Vacuum adiabatic calorimetry	229.9 ± 0.43	–
298.15 K, Vacuum adiabatic calorimetry	236.26 ± 0.44	267.36 ± 0.47
298.37 K, Vacuum adiabatic calorimetry	236.5 ± 0.44	267.48 ± 0.47
300 K, Vacuum adiabatic calorimetry	–	268.32 ± 0.47
303.38 K, Vacuum adiabatic calorimetry	–	270.07 ± 0.47
305.34 K, Vacuum adiabatic calorimetry	–	270.99 ± 0.47
305.59 K, Vacuum adiabatic calorimetry	–	271.14 ± 0.47
313.82 K, Vacuum adiabatic calorimetry	–	275.26 ± 0.47
320 K, Vacuum adiabatic calorimetry	–	278.43 ± 0.48
325.59 K, Vacuum adiabatic calorimetry	–	281.23 ± 0.48
339.57 K, Vacuum adiabatic calorimetry	–	288.4 ± 0.49
340 K, Vacuum adiabatic calorimetry	–	288.62 ± 0.49
356.66 K, Vacuum adiabatic calorimetry	–	297.31 ± 0.5
360 K, Vacuum adiabatic calorimetry	–	299.1 ± 0.5
373.63 K, Vacuum adiabatic calorimetry	–	306.34 ± 0.51
380 K, Vacuum adiabatic calorimetry	–	309.56 ± 0.51
390.49 K, Vacuum adiabatic calorimetry	–	314.87 ± 0.52
400 K, Vacuum adiabatic calorimetry	–	319.92 ± 0.52
407.29 K, Vacuum adiabatic calorimetry	–	323.8 ± 0.52
420 K, Vacuum adiabatic calorimetry	–	330.39 ± 0.53
424.08 K, Vacuum adiabatic calorimetry	–	332.47 ± 0.53
438.41 K, Vacuum adiabatic calorimetry	–	339.81 ± 0.54
440 K, Vacuum adiabatic calorimetry	–	340.5 ± 0.54
460 K, Vacuum adiabatic calorimetry	–	349.5 ± 0.55
480 K, Small sample (50 mg) DSC	–	358.67 ± 7.2
500 K, Small sample (50 mg) DSC	–	367.6 ± 7.3
520 K, Small sample (50 mg) DSC	–	376.3 ± 7.6
540 K, Small sample (50 mg) DSC	–	384.6 ± 7.7
560 K, Small sample (50 mg) DSC	–	392.7 ± 7.8
580 K, Small sample (50 mg) DSC	–	400.5 ± 8
600 K, Small sample (50 mg) DSC	–	407.9 ± 8.1
620 K, Small sample (50 mg) DSC	–	415.1 ± 8.3
640 K, Small sample (50 mg) DSC	–	422.3 ± 8.5
660 K, Small sample (50 mg) DSC	–	429.6 ± 8.6
680 K, Small sample (50 mg) DSC	–	437.4 ± 8.7
700 K, Small sample (50 mg) DSC	–	446.9 ± 9

Conditions	Molar enthalpy of transition or fusion [kJ/mol]	Triple point temperature [K]
Crystal	–	298.37 ± 0.025
[2]	19.01 ± 0.02	–

Conditions	mass density [kg/m3]	vapor or sublimation pressure [kPa]
308.14 K, Liquid, Vibrating tube method	996.7 ± 1	–
323.14 K, Liquid, Vibrating tube method	985.3 ± 1	–
329.99 K, Liquid, Inclined piston gauge	–	0.0261 ± 0.001
339.99 K, Liquid, Inclined piston gauge	–	0.0523 ± 0.0011
348.13 K, Liquid, Vibrating tube method	965.6 ± 1	–
349.98 K, Liquid, Inclined piston gauge	–	0.0995 ± 0.0011
359.97 K, Liquid, Inclined piston gauge	–	0.1814 ± 0.0012
369.98 K, Liquid, Inclined piston gauge	–	0.3181 ± 0.0014
373.12 K, Liquid, Vibrating tube method	945.8 ± 0.9	–
379.98 K, Liquid, Inclined piston gauge	–	0.5378 ± 0.0016
389.97 K, Liquid, Inclined piston gauge	–	0.8793 ± 0.0021
398.12 K, Liquid, Vibrating tube method	926.1 ± 0.9	–
399.97 K, Liquid, Inclined piston gauge	–	1.395 ± 0.0027
408.21 K, Liquid, Twin ebulliometer	–	2 ± 0.01
409.97 K, Liquid, Inclined piston gauge	–	2.155 ± 0.0036
414.97 K, Liquid, Inclined piston gauge	–	2.651 ± 0.0043
415.11 K, Liquid, Twin ebulliometer	–	2.666 ± 0.01
419.97 K, Liquid, Inclined piston gauge	–	3.243 ± 0.0049
423.12 K, Liquid, Vibrating tube method	905.7 ± 0.9	–
425.34 K, Liquid, Twin ebulliometer	–	4 ± 0.011
432.99 K, Liquid, Twin ebulliometer	–	5.333 ± 0.011
444.38 K, Liquid, Twin ebulliometer	–	7.999 ± 0.012
448.11 K, Liquid, Vibrating tube method	885.4 ± 0.9	–
452.93 K, Liquid, Twin ebulliometer	–	10.67 ± 0.013
459.84 K, Liquid, Twin ebulliometer	–	13.33 ± 0.014
467.03 K, Liquid, Twin ebulliometer	–	16.66 ± 0.015
473 K, Liquid, Twin ebulliometer	–	19.93 ± 0.016
473.11 K, Liquid, Vibrating tube method	864.3 ± 0.9	–
480.86 K, Liquid, Twin ebulliometer	–	25.02 ± 0.018
488.78 K, Liquid, Twin ebulliometer	–	31.17 ± 0.021
496.76 K, Liquid, Twin ebulliometer	–	38.56 ± 0.024
498.11 K, Liquid, Vibrating tube method	842.6 ± 0.9	–
504.79 K, Liquid, Twin ebulliometer	–	47.37 ± 0.027
512.88 K, Liquid, Twin ebulliometer	–	57.81 ± 0.031
521.02 K, Liquid, Twin ebulliometer	–	70.11 ± 0.035
523.11 K, Liquid, Vibrating tube method	819.2 ± 0.8	–
529.22 K, Liquid, Twin ebulliometer	–	84.53 ± 0.041
537.47 K, Liquid, Twin ebulliometer	–	101.31 ± 0.046
545.78 K, Liquid, Twin ebulliometer	–	120.78 ± 0.05
554.14 K, Liquid, Twin ebulliometer	–	143.23 ± 0.06
562.56 K, Liquid, Twin ebulliometer	–	169 ± 0.07
571.03 K, Liquid, Twin ebulliometer	–	198.46 ± 0.08
579.55 K, Liquid, Twin ebulliometer	–	231.99 ± 0.09
588.13 K, Liquid, Twin ebulliometer	–	269.98 ± 0.09
743.8 K, Gas, DSC	104.3 ± 10	–
754.8 K, Gas, DSC	148.4 ± 15	–
760.6 K, Liquid, DSC	417.7 ± 42	–
767.1 K, Liquid, DSC	417.5 ± 42	–
769.8 K, Liquid, DSC	397.2 ± 40	–
770 K, Gas, DSC	191.2 ± 19	–
775.7 K, Gas, DSC	220.3 ± 22	–
776.5 K, Liquid, DSC	333.5 ± 34	–
777 K, Liquid, DSC	304.2 ± 31	–

Conditions	Critical temperature [K]
Liquid, DTA	778 ± 2
